This is an account of results in PMC5384759 (ACS Chemical Neuroscience, 2016).

Each structure is given as a SMILES string. Where two headings read alike, the source gives them in different places.

Series [1] is classed as in vivo, CD-1 mice. The note with it: for half-life / AUC: female, CD-1, mouse, ip; for AUC: area under the concentration-time curve.
Series [2] can be described thus: CIT metabolism in placental microsomal preparations. The note with it: E14 and E18, 500 ng/mL CIT, 2 h. It is filed as in vitro ADME, mice.
The format of series [3] is in vivo, CD-1 mice.
Series [4] can be described thus: CIT metabolism in fetal liver microsomal preparations. The note with it: 2 h incubation. It counts as in vitro ADME, mice. (In general: Liver microsomes are vesicles of endoplasmic reticulum, rich in cytochrome P450 enzymes.)
Another series addresses SERT. The note with it: read-out: inhibitory constant (Ki) of SERT-mediated 5-HT uptake; cited from earlier work.
Series [5] can be described thus: Ex vivo transplacental transfer of CIT and DCIT. It is filed as in vitro ADME, mice.
The conditions of series [6]: cited from earlier work.
The conditions of series [7]: patients, racemic CIT; cited from earlier work.
Setting [8] is: nonpregnant mice, fixed dose 0.6 mg CIT ip, serum.
Where [9] appears, read: pregnant mice GD14, weight-adjusted dose 20 mg/kg CIT ip, maternal serum.
[10] abbreviates: pregnant mice GD18, weight-adjusted dose 20 mg/kg CIT ip, maternal serum.
Where [11] appears, read: pregnant mice GD18FD, fixed dose 0.6 mg CIT ip, maternal serum.

As usually defined, the half-life is the time needed for the level to fall by half in the phase considered. A higher half-life goes with slow loss. What is called AUC is the area under the concentration-time curve, a measure of exposure. Read a low AUC as low exposure. `CN(C)CCCC1(c2ccc(F)cc2)OCc2cc(C#N)ccc21` (racemic) [CIT, (±)-citalopram]: in series [1] (20 mg/kg vs fixed 0.6 mg CIT ip, dose increased by 100%), the “increase in AUC in the GD18 group over the GD18FD dams” value stood at 141%. For the same molecule, the half-life in series [1] (maternal serum, 0.6 mg) is 55.8 ± 3.6 min; in series [1] (maternal serum, 20 mg/kg), 64.8 ± 4.2 min; in series [1] (serum, 0.6 mg), 63.6 ± 2.4 min; in series [1] (serum, 20 mg/kg), 63 ± 1.8 min. In addition, the AUC in series [1] (maternal serum, 0.6 mg, pregnant mice GD18FD, fixed dose 0.6 mg CIT ip) was 927 ± 28 ng·h/mL; in series [1] (serum, 0.6 mg, nonpregnant mice, fixed dose 0.6 mg CIT ip), 1230 ± 39 ng·h/mL. The “reduction in the AUC of serum CIT in GD18FD dams compared to nonpregnant mice” value in series [1] (fixed dose 0.6 mg CIT ip) was determined as 25%. Besides, the CIT absorption phase is on record as 1.67 in series [1] (nonpregnant mice, fixed dose 0.6 mg CIT ip) and 1.76 in series [1] (pregnant mice GD18FD, fixed dose 0.6 mg CIT ip). Further, the “C0, peak concentration” value in series [1] (setting [8]) stood at 2050 ± 36 ng/mL; in series [1] (setting [9]), 2278 ± 31 ng/mL; in series [1] (setting [10]) it was 2353 ± 33 ng/mL; in series [1] (setting [11]), 1667 ± 38 ng/mL. The “CL, clearance” value in series [1] (setting [8]) amounted to 486 ± 9 mL·h; in series [1] (setting [9]), 689 ± 15 mL·h; in series [1] (setting [11]), 647 ± 20 mL·h. Moreover, the “VD, volume of distribution” value in series [1] (setting [8]) turned out to be 29.3 ± 2.3 mL; in series [1] (setting [9]) it was 41.7 ± 2.5 mL; in series [1] (setting [10]) it was 50.9 ± 2.0 mL; in series [1] (setting [11]), 36.0 ± 2.6 mL. For the same molecule, the results for the “AUCdn, dose-normalized AUC” value in series [1] (setting [9]), in series [1] (setting [10]) and in series [1] (setting [11]) were 1.45 ± 0.10 (ng × h/mL)μg, 1.86 ± 0.20 (ng × h/mL)μg and 1.48 ± 0.21 (ng × h/mL)μg, respectively. The “increase in VD as gestation advanced from GD14 to GD18” value in series [1] (weight-adjusted dose 20 mg/kg CIT ip) is recorded as 22%. Moreover, the “CIT to DCIT metabolic capacity of placental microsomes” value in series [2] is “no significant CIT to DCIT metabolic capacity”. Further, in series [3] (E14 and E18 fetuses, maternal 20 mg/kg CIT ip), the “time of peak fetal serum CIT concentration following maternal drug injection” value was found to be 15 min. In addition, the “DCIT generation from fetal liver microsomes” value is listed as “no measurable DCIT generation” in series [4] (E14, 500 ng/mL CIT) and “significant rate of CIT to DCIT conversion” in series [4] (E18, 500 ng/mL CIT).
In general, Ki refers to a measure of affinity in units of concentration, obtained from inhibition or displacement. Regarding `CNCCCC1(c2ccc(F)cc2)OCc2cc(C#N)ccc21` (stereo not drawn) [DCIT, desmethylcitalopram], at SERT, the Ki was 14 nM. Further, the “DCIT in fetal eluate during placental perfusion with CIT (placental metabolism)” value in series [5] (E18 placenta perfused with 500 ng/mL CIT, 10 min intervals over 120 min) is recorded as “not detected”. Further, the “transplacental transfer efficiency of DCIT relative to CIT (fold less efficient)” value in series [5] (ex vivo perfusion, E18 placentas) is about 2 fold. In addition, the “time to peak DCIT concentration in fetal serum” value was determined as 1 h in series [3] (E14, after maternal 20 mg/kg CIT ip) and 2.5 h in series [3] (E18, after maternal 20 mg/kg CIT ip). Moreover, in series [6], the partition coefficient was 0.28. The “mean plasma S/R enantiomer ratio” value in series [7] is listed as 0.7.
